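These data come from cells grown in 96-well plates and exposed to compound for 48 hours at five concentrations. At the TGI there is no net growth.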
Assays:
Assay in all cases: NCI tumour cell line growth inhibition, 48 h
786-0 renal = system: 786-0 renal
A549 NSCLC = system: A549 NSCLC
ACHN renal = system: ACHN renal
BT-549 breast = system: BT-549 breast
CAKI-1 renal = system: CAKI-1 renal
CCRF-CEM leukemia = system: CCRF-CEM leukemia
DU-145 prostate = system: DU-145 prostate
HCC-2998 colon = system: HCC-2998 colon
HCT-116 colon = system: HCT-116 colon
HCT-15 colon = system: HCT-15 colon
HL-60(TB) leukemia = system: HL-60(TB) leukemia
HOP-62 NSCLC = system: HOP-62 NSCLC
HT29 colon = system: HT29 colon
IGROV1 ovarian = system: IGROV1 ovarian
K-562 leukemia = system: K-562 leukemia
LOX IMVI melanoma = system: LOX IMVI melanoma
M14 melanoma = system: M14 melanoma
MALME-3M melanoma = system: MALME-3M melanoma
MCF7 breast = system: MCF7 breast
MDA-MB-231 breast = system: MDA-MB-231 breast
MDA-MB-435 = system: MDA-MB-435
MDA-N = system: MDA-N
MOLT-4 leukemia = system: MOLT-4 leukemia
NCI-H226 lung = system: NCI-H226 lung
NCI-H23 lung = system: NCI-H23 lung
NCI-H460 lung = system: NCI-H460 lung
NCI-H522 lung = system: NCI-H522 lung
OVCAR-3 ovarian = system: OVCAR-3 ovarian
OVCAR-4 ovarian = system: OVCAR-4 ovarian
OVCAR-5 ovarian = system: OVCAR-5 ovarian
OVCAR-8 ovarian = system: OVCAR-8 ovarian
PC-3 prostate = system: PC-3 prostate
RPMI-8226 leukemia = system: RPMI-8226 leukemia
SF-268 CNS = system: SF-268 CNS
SK-MEL-2 melanoma = system: SK-MEL-2 melanoma
SK-MEL-28 melanoma = system: SK-MEL-28 melanoma
SK-MEL-5 melanoma = system: SK-MEL-5 melanoma
SN12C renal = system: SN12C renal
SNB-19 CNS = system: SNB-19 CNS
SNB-75 CNS = system: SNB-75 CNS
SR leukemia = system: SR leukemia
SW-620 colon = system: SW-620 colon
T-47D breast = system: T-47D breast
TK-10 renal = system: TK-10 renal
U251 CNS = system: U251 CNS
UACC-257 melanoma = system: UACC-257 melanoma
UACC-62 melanoma = system: UACC-62 melanoma
UO-31 renal = system: UO-31 renal
A498 renal = system: A498 renal
EKVX NSCLC = system: EKVX NSCLC
HOP-92 NSCLC = system: HOP-92 NSCLC
HS 578T breast = system: HS 578T breast
KM12 colon = system: KM12 colon
NCI/ADR-RES ovarian = system: NCI/ADR-RES ovarian
RXF 393 renal = system: RXF 393 renal
SF-295 CNS = system: SF-295 CNS
SF-539 CNS = system: SF-539 CNS
SK-OV-3 ovarian = system: SK-OV-3 ovarian

Measured: TGI

NC(CCCCNC(=O)C(Cc1ccccc1)NC(=O)OCc1ccccc1)C(=O)NC(CCCCNC(=O)C(Cc1ccccc1)NC(=O)OCc1ccccc1)C(=O)NC(CCCCNC(=O)C(Cc1ccccc1)NC(=O)OCc1ccccc1)C(=O)NC(CCCCNC(=O)C(Cc1ccccc1)NC(=O)OCc1ccccc1)C(=O)NC(CCCCNC(=O)C(Cc1ccccc1)NC(=O)OCc1ccccc1)C(=O)NC(CCCCNC(=O)C(Cc1ccccc1)NC(=O)OCc1ccccc1)C(=O)O (stereo not given)
not listed: A498 renal | EKVX NSCLC | HOP-92 NSCLC | HS 578T breast | KM12 colon | NCI/ADR-RES ovarian | RXF 393 renal | SF-295 CNS | SF-539 CNS | SK-OV-3 ovarian
> 100 µM: all other assays above

N/N=C(\C(=O)Nc1ccc([N+](=O)[O-])cc1)C(C1=Nc2cc([N+](=O)[O-])ccc2NC1)[N+](=O)[O-] (stereo not given)
not listed: DU-145 prostate
> 100 µM: all other assays above
